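Exposure lasted 48 hours, with cells grown in 96-well plates and compounds tested at five concentrations. At the GI50, growth is halved.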 Activity calls are given as the source filed them. No stated cut-off is given here; in the data, active = GI50 up to about 1.1 µM and inactive = higher.
Experiments:
Experiment in all cases: NCI anticancer screen, dose series, 48 h
SF-295 = system: SF-295
MCF7 = system: MCF7
PC-3 = system: PC-3
TK-10 = system: TK-10
MDA-MB-231 = system: MDA-MB-231
IGROV-1 = system: IGROV-1
K562 = system: K562
NCI/ADR-RES = system: NCI/ADR-RES
CCRF-CEM = system: CCRF-CEM
A549 = system: A549
HL-60 = system: HL-60
A498 = system: A498
OVCAR-5 = system: OVCAR-5
T47D = system: T47D
SF-268 = system: SF-268
OVCAR-4 = system: OVCAR-4
OVCAR-8 = system: OVCAR-8
Hs-578T = system: Hs-578T
SK-OV-3 = system: SK-OV-3
SNB-75 = system: SNB-75

Row | SMILES | GI50 (SF-295) | GI50 (MCF7) | GI50 (PC-3) | GI50 (TK-10) | GI50 (MDA-MB-231) | GI50 (IGROV-1) | GI50 (K562) | GI50 (NCI/ADR-RES) | GI50 (CCRF-CEM) | GI50 (A549) | GI50 (HL-60) | GI50 (A498) | GI50 (OVCAR-5) | GI50 (T47D) | GI50 (SF-268) | GI50 (OVCAR-4) | GI50 (OVCAR-8) | GI50 (Hs-578T) | GI50 (SK-OV-3) | GI50 (SNB-75)
1 | O=C1C=C(NCCc2ccccc2)c2ccccc2C1=O | 1.98 µM (inactive) | 1.67 µM (inactive) | 5.25 µM (inactive) | 14.2 µM (inactive) | 5.86 µM (inactive) | 7.28 µM (inactive) | 4.34 µM (inactive) | 4.11 µM (inactive) | 12.3 µM (inactive) | 1.95 µM (inactive) | 1.69 µM (inactive) | 3.71 µM (inactive) | 1.98 µM (inactive) | 16.7 µM (inactive) | 7.24 µM (inactive) | 3.93 µM (inactive) | 6.38 µM (inactive) | 2.08 µM (inactive) | 13.9 µM (inactive) | 1.69 µM (inactive)
2 | O=C(/C=C/c1cccs1)c1ccc(Cl)s1 | 37.8 µM (inactive) | 17.2 µM (inactive) | 40.6 µM (inactive) | > 100 µM (inactive) | 40.3 µM (inactive) | > 10 µM (inactive) | 31.3 µM (inactive) | > 100 µM (inactive) | 25.1 µM (inactive) | 42.9 µM (inactive) | 22.1 µM (inactive) | 55.7 µM (inactive) | 54.3 µM (inactive) | 35.1 µM (inactive) | 38.7 µM (inactive) | 48.5 µM (inactive) | 37.9 µM (inactive) | 46.7 µM (inactive) | 67 µM (inactive) | 56 µM (inactive)
3 | C=C(C)C12CC3CC/C(=N/O)C(C1)C3(N1CCOCC1)C/C2=N/O (stereo not given) | > 100 µM (inactive) | > 100 µM (inactive) | > 100 µM (inactive) | > 100 µM (inactive) | > 100 µM (inactive) | > 100 µM (inactive) | > 100 µM (inactive) | > 100 µM (inactive) | > 100 µM (inactive) | > 100 µM (inactive) | > 100 µM (inactive) | > 100 µM (inactive) | > 100 µM (inactive) | > 100 µM (inactive) | > 100 µM (inactive) | > 100 µM (inactive) | > 100 µM (inactive) | > 100 µM (inactive) | > 100 µM (inactive) | > 100 µM (inactive)
4 | CC(C)C[C@H]1[C@@H](OCc2ccccc2)COS(=O)(=O)N1[C@H](C)c1ccccc1 | 9.12 µM (inactive) | 21.7 µM (inactive) | 7.38 µM (inactive) | 83 µM (inactive) | 48 µM (inactive) | > 100 µM (inactive) | 5.24 µM (inactive) | 52.2 µM (inactive) | 8.71 µM (inactive) | 29.5 µM (inactive) | 6.11 µM (inactive) | > 100 µM (inactive) | > 100 µM (inactive) | 2.9 µM (inactive) | > 93.1 µM (inactive) | > 100 µM (inactive) | > 61.5 µM (inactive) | > 100 µM (inactive) | > 93.1 µM (inactive) | > 46.7 µM (inactive)
5 | CC(N/N=N/c1ccc(-c2nc3ccccc3[nH]2)cc1)C(=O)O (stereo not given) | 19.6 µM (inactive) | 4.21 µM (inactive) | 25.6 µM (inactive) | 81.7 µM (inactive) | 33.7 µM (inactive) | 12.9 µM (inactive) | 7.16 µM (inactive) | 7.94 µM (inactive) | 3.18 µM (inactive) | 33 µM (inactive) | 32.6 µM (inactive) | > 100 µM (inactive) | > 100 µM (inactive) | 16.3 µM (inactive) | 32.7 µM (inactive) | 37.6 µM (inactive) | 22.2 µM (inactive) | 33.7 µM (inactive) | > 100 µM (inactive) | > 100 µM (inactive)
6 | CN1CCCCC1CCN1c2ccccc2Sc2ccc([S+](C)[O-])cc21 (stereo not given) [MESORIDAZINE] | > 100 µM (inactive) | > 100 µM (inactive) | > 100 µM (inactive) | > 100 µM (inactive) | > 100 µM (inactive) | > 100 µM (inactive) | > 100 µM (inactive) | > 100 µM (inactive) | > 100 µM (inactive) | > 100 µM (inactive) | > 100 µM (inactive) | > 100 µM (inactive) | > 100 µM (inactive) | > 100 µM (inactive) | > 100 µM (inactive) | > 100 µM (inactive) | > 100 µM (inactive) | > 100 µM (inactive) | > 100 µM (inactive) | > 100 µM (inactive)
7 | COc1ccc(C2C(C)C(=O)C(C)C(c3ccc(OC)cc3)N2N=O)cc1 (stereo not given) | 126 µM (inactive) | 372 µM (inactive) | 253 µM (inactive) | 90.6 µM (inactive) | 27.2 µM (inactive) | 165 µM (inactive) | > 1000 µM (inactive) | 258 µM (inactive) | > 700 µM (inactive) | 239 µM (inactive) | > 1000 µM (inactive) | 203 µM (inactive) | 393 µM (inactive) | 127 µM (inactive) | 171 µM (inactive) | > 479 µM (inactive) | 340 µM (inactive) | 56.5 µM (inactive) | 257 µM (inactive) | 26.5 µM (inactive)
8 | c1ccc2nn(C3CCCO3)nc2c1 (stereo not given) | > 100 µM (inactive) | > 100 µM (inactive) | > 100 µM (inactive) | > 100 µM (inactive) | > 100 µM (inactive) | > 100 µM (inactive) | > 100 µM (inactive) | > 100 µM (inactive) | > 100 µM (inactive) | > 100 µM (inactive) | > 100 µM (inactive) | > 100 µM (inactive) | > 100 µM (inactive) | > 100 µM (inactive) | > 100 µM (inactive) | > 100 µM (inactive) | > 100 µM (inactive) | > 100 µM (inactive) | > 100 µM (inactive) | > 100 µM (inactive)
9 | O=C1C(Br)=C(C2=CC(=P(c3ccccc3)(c3ccccc3)c3ccccc3)C=C2)C(=O)C(Br)=C1C1=CC(=P(c2ccccc2)(c2ccccc2)c2ccccc2)C=C1 | > 100 µM (inactive) | > 100 µM (inactive) | > 100 µM (inactive) | 30.3 µM (inactive) | 42.1 µM (inactive) | 40.3 µM (inactive) | > 100 µM (inactive) | > 100 µM (inactive) | > 100 µM (inactive) | > 100 µM (inactive) | > 100 µM (inactive) | > 100 µM (inactive) | 17.9 µM (inactive) | > 100 µM (inactive) | > 100 µM (inactive) | 76 µM (inactive) | > 100 µM (inactive) | > 100 µM (inactive) | > 100 µM (inactive) | > 100 µM (inactive)
10 | Cc1c2cc[n+](C)c(C)c2cc2c1[nH]c1ccccc12 | 2.27 µM (inactive) | 5.74 µM (inactive) | 22.2 µM (inactive) | > 89.3 µM (inactive) | 2.51 µM (inactive) | 7.98 µM (inactive) | 4.94 µM (inactive) | 71.1 µM (inactive) | 6.9 µM (inactive) | 1.59 µM (inactive) | 16.9 µM (inactive) | 70.5 µM (inactive) | 19.2 µM (inactive) | 2.14 µM (inactive) | 0.984 µM (active) | 5.43 µM (inactive) | 2.82 µM (inactive) | 0.818 µM (active) | 12.7 µM (inactive) | 1.19 µM (inactive)
11 | CCOC(=O)C1=C(C)C2C=C(c3cccs3)CC(c3ccc(Cl)cc3)=C2OC1=O (stereo not given) | 60.4 µM (inactive) | 14.1 µM (inactive) | 14.1 µM (inactive) | 31.7 µM (inactive) | 92.3 µM (inactive) | 26.3 µM (inactive) | 5.05 µM (inactive) | 30.5 µM (inactive) | 17.3 µM (inactive) | > 100 µM (inactive) | 4.69 µM (inactive) | 83.2 µM (inactive) | > 100 µM (inactive) | 3.97 µM (inactive) | 97.1 µM (inactive) | 19.7 µM (inactive) | 31.8 µM (inactive) | > 100 µM (inactive) | > 100 µM (inactive) | 50.8 µM (inactive)
12 | CNc1ccc(Cl)cc1S(=O)(=O)c1ccccc1[N+](=O)[O-] | > 100 µM (inactive) | > 100 µM (inactive) | > 100 µM (inactive) | > 100 µM (inactive) | > 100 µM (inactive) | > 100 µM (inactive) | > 100 µM (inactive) | > 100 µM (inactive) | > 100 µM (inactive) | > 100 µM (inactive) | > 100 µM (inactive) | > 100 µM (inactive) | > 100 µM (inactive) | > 100 µM (inactive) | > 100 µM (inactive) | 99.3 µM (inactive) | > 100 µM (inactive) | 31.1 µM (inactive) | > 100 µM (inactive) | > 100 µM (inactive)
13 | O=P(Nc1ccccc1)(Oc1ccccc1)N1CCN(c2ccccc2)CC1 (stereo not given) | 18.4 µM (inactive) | 17.2 µM (inactive) | 18.1 µM (inactive) | 21.8 µM (inactive) | 14.9 µM (inactive) | 20.8 µM (inactive) | 49.1 µM (inactive) | 17.6 µM (inactive) | 26.3 µM (inactive) | 17.5 µM (inactive) | 25 µM (inactive) | 20.2 µM (inactive) | 17.9 µM (inactive) | 22.6 µM (inactive) | 23.2 µM (inactive) | 25.5 µM (inactive) | 21.9 µM (inactive) | 17.9 µM (inactive) | 16.8 µM (inactive) | 15.2 µM (inactive)
14 | CC(c1ccccc1)n1c2ccccc2c2c(N)ncnc21 (stereo not given) | 17 µM (inactive) | 20.7 µM (inactive) | 17.7 µM (inactive) | 17.1 µM (inactive) | 19.1 µM (inactive) | 18.9 µM (inactive) | 24.7 µM (inactive) | 20.4 µM (inactive) | 27.8 µM (inactive) | 21.6 µM (inactive) | 23.9 µM (inactive) | 15.7 µM (inactive) | 18.2 µM (inactive) | 15.5 µM (inactive) | 21.1 µM (inactive) | 13.6 µM (inactive) | 17.1 µM (inactive) | 18 µM (inactive) | 14.2 µM (inactive) | 1.4 µM (inactive)
